For orientation: IC50 means the midpoint of a concentration-inhibition curve.

Targets include A31 (A*3101) (Homo sapiens, UniProt P04439, A270S/D185E/E176V/E277Q/F33T/G231S/G80R/H175R/I121M/I218V/I322F/K168Q/L300P/L318F/M331R/P217A/Q94H/R138Q/T323A/T345S/T97I/V358M); A*3301 (Homo sapiens, UniProt P04439, A270S/D185E/E176V/E277Q/E87N/F33T/G231S/H175R/I121M/I218V/I322F/K168Q/K210R/L300P/L318F/M331R/P217A/Q86R/Q94H/R138Q/T323A/T345S/T97I/V358M/Y195H); A*6801 (Homo sapiens, UniProt P04439, A269V/D185E/E176V/E277Q/E87N/F33Y/G231S/I121M/I166T/I218V/L180W/L300P/L318F/N151K/P208A/P217A/Q86R/R169H/T345S); HLA-A11 (A*1101) (Homo sapiens, UniProt P04439, A114D/D185E/E176A/F33Y/L180Q/S129P/T187R); HLA-A3.2 (A*0301) (Homo sapiens, UniProt P04439).

What all share (assay): biochemical
Common to all, as to type: binding

No end group written: not given here.

In the case of GTVFGILIKR [Peptide 9012.0243], the IC50 against A31 (A*3101) stood at 46 nM; on A*3301, 3130 nM; against A*6801 it was 18 nM; against HLA-A11 (A*1101), 27 nM; at HLA-A3.2 (A*0301) it was 2560 nM.
The like results for GVLILALLR [Peptide 88.0338] were, in that order, 2300 nM, 3890 nM, 943 nM, 56 nM and 2880 nM.
GVSIEWRKRR [Peptide 9017.0221]: the IC50 was 226 nM at A31 (A*3101); 1680 nM on A*3301; 8810 nM on A*6801; 6320 nM against HLA-A11 (A*1101); above 20000 nM against HLA-A3.2 (A*0301).
GVVFGILIKK [Peptide 9012.0242]: the half-maximal inhibitory concentration (IC50) at A31 (A*3101) was above 20000 nM; against A*3301 it was above 20000 nM; against A*6801 it was 146 nM; against HLA-A11 (A*1101), 17 nM; at HLA-A3.2 (A*0301) it was 484 nM.
Consider HLFDYSWYK [Peptide 76.0165], for which the IC50 at A31 (A*3101) is 36 nM; against A*3301 it was 61 nM; against A*6801, 2.1 nM; against HLA-A11 (A*1101), 0.99 nM; against HLA-A3.2 (A*0301) it was 4.1 nM.
The like results for HLFGYSYYK [Peptide 76.0191] were, in that order, 1800 nM, 3470 nM, 14 nM, 2.7 nM and 11 nM.
Take HLFRYSWYK [Peptide 76.0171]: the IC50 at A31 (A*3101) was 62 nM; at A*3301 it was 83 nM; at A*6801, 27 nM; against HLA-A11 (A*1101), 16 nM; at HLA-A3.2 (A*0301), 21 nM.
On the same counts, the results for HLFTYSWYK [Peptide 76.0164] are 35 nM, 137 nM, 19 nM, 7.7 nM and 4.9 nM.
Consider HLFWYSWYK [Peptide 76.0168], for which the 50% inhibitory concentration (IC50) against A31 (A*3101) turned out to be 28 nM; on A*3301, 39 nM; against A*6801 it was 3.4 nM; against HLA-A11 (A*1101), 5.3 nM; against HLA-A3.2 (A*0301) it was 6.4 nM.
For HLYGYSWYK [Peptide 76.0153], the IC50 is 48 nM on A31 (A*3101); 61 nM at A*3301; 16 nM at A*6801; 11 nM against HLA-A11 (A*1101); 12 nM on HLA-A3.2 (A*0301).
HSRIGILRQR [Peptide 9017.0242]: the concentration for half-maximal inhibition (IC50) on A31 (A*3101) is 9.8 nM; against A*3301 it was 418 nM; on A*6801 it was 253 nM; on HLA-A11 (A*1101) it was 6910 nM; against HLA-A3.2 (A*0301), 637 nM.
Take ILLLLIRFK [Peptide 88.0386]: the half-maximal inhibitory concentration (IC50) on A31 (A*3101) worked out at 48 nM; on A*3301, 402 nM; against A*6801, 2500 nM; against HLA-A11 (A*1101) it was 1880 nM; against HLA-A3.2 (A*0301) it was 120 nM.
On to ILYQSNPYPK [Peptide 9017.0198], for which the IC50 was 549 nM against A31 (A*3101); 11000 nM against A*3301; 37 nM at A*6801; 14 nM on HLA-A11 (A*1101); 8.8 nM at HLA-A3.2 (A*0301).
ISWLGLRSLK [Peptide 9012.0234]: the IC50 against A31 (A*3101) was 265 nM; against A*3301, 2500 nM; against A*6801, 39 nM; against HLA-A11 (A*1101) it was 18 nM; at HLA-A3.2 (A*0301) it was 31 nM.
Take ISYGRKKRR [Peptide 9017.0079]: the 50% inhibitory concentration (IC50) against A31 (A*3101) was 36 nM; against A*3301, 1120 nM; against A*6801 it was 1360 nM; at HLA-A11 (A*1101) it was above 20000 nM; against HLA-A3.2 (A*0301), 9280 nM.
On the same counts, the results for ISYGRKKRRQK [Peptide 73.0314] are 3150 nM, above 20000 nM, 4430 nM, 2810 nM and 48 nM.
On the same counts, the results for ITVSAELPR [Peptide 1556.18] are 6930 nM, 8710 nM, 25 nM, 739 nM and above 20000 nM.
In the case of ITYSDETQR [Peptide 88.0429], the half-inhibitory concentration (IC50) stood at 879 nM at A31 (A*3101); 1350 nM against A*3301; 26 nM at A*6801; 165 nM on HLA-A11 (A*1101); 2960 nM against HLA-A3.2 (A*0301).
On the same counts, the results for KFYSKISEYR [Peptide 78.0081] are 48 nM, 79 nM, 264 nM, 18000 nM and 1680 nM.
As for KGLGISYGRKK [Peptide 1577.23], the half-maximal inhibitory concentration (IC50) is 49 nM against A31 (A*3101); above 20000 nM on A*3301; above 20000 nM against A*6801; 6210 nM at HLA-A11 (A*1101); 23 nM on HLA-A3.2 (A*0301).
For the sequence KIDWLIKRIR [Peptide 9017.0248], the IC50 on A31 (A*3101) is 19 nM; against A*3301, 6690 nM; against A*6801 it was above 20000 nM; on HLA-A11 (A*1101), 8630 nM; on HLA-A3.2 (A*0301), 8650 nM.
The like results for KIKPPLPSVR [Peptide 9017.0234] were, in that order, 8.1 nM, 3440 nM, 14700 nM, 6950 nM and 1110 nM.
For the sequence KISEYRHYCY [Peptide 78.0082], the half-inhibitory concentration (IC50) against A31 (A*3101) came to 4850 nM; against A*3301, 2350 nM; against A*6801, 2000 nM; against HLA-A11 (A*1101), 163 nM; against HLA-A3.2 (A*0301) it was 152 nM.
Consider KLCLRFLSK [Peptide 1571.20], for which the half-maximal inhibitory concentration (IC50) against A31 (A*3101) is 271 nM; at A*3301, above 20000 nM; against A*6801 it was above 20000 nM; at HLA-A11 (A*1101), 279 nM; against HLA-A3.2 (A*0301), 18 nM.
Regarding KLFGYSWYK [Peptide 76.0146], the half-maximal inhibitory concentration (IC50) was 7.3 nM against A31 (A*3101); 3720 nM at A*3301; 16 nM at A*6801; 7.3 nM against HLA-A11 (A*1101); 11 nM on HLA-A3.2 (A*0301).
Take KLFLKGVPK [Peptide 1587.41]: the IC50 was 1.5 nM on A31 (A*3101); 9680 nM at A*3301; above 20000 nM at A*6801; 17 nM at HLA-A11 (A*1101); 16 nM at HLA-A3.2 (A*0301).
For KLFLQGTPK [Peptide 88.0381], the half-maximal inhibitory concentration (IC50) was 51 nM against A31 (A*3101); above 20000 nM on A*3301; 703 nM against A*6801; 12 nM on HLA-A11 (A*1101); 15 nM on HLA-A3.2 (A*0301).
Turning to KLGIVTITY [Peptide 88.0428], the IC50 at A31 (A*3101) is above 20000 nM; on A*3301, above 20000 nM; against A*6801, above 20000 nM; at HLA-A11 (A*1101) it was 3430 nM; against HLA-A3.2 (A*0301), 65 nM.
Regarding KLVEDRWNK [Peptide 9017.0107], the IC50 at A31 (A*3101) is 61 nM; on A*3301, above 20000 nM; on A*6801 it was 18000 nM; at HLA-A11 (A*1101), 102 nM; against HLA-A3.2 (A*0301), 265 nM.
For the sequence KQEAVRHFPR [Peptide 9017.0239], the IC50 against A31 (A*3101) stood at 9.9 nM; against A*3301 it was 575 nM; at A*6801, 6740 nM; against HLA-A11 (A*1101) it was 394 nM; against HLA-A3.2 (A*0301) it was 9260 nM.
For the sequence KSCFAMSLIK [Peptide 88.0190], the IC50 against A31 (A*3101) was 311 nM; against A*3301 it was above 20000 nM; on A*6801, 12200 nM; on HLA-A11 (A*1101) it was 17 nM; at HLA-A3.2 (A*0301), 57 nM.
Turning to KSFFSRTWCK [Peptide 88.0170], the IC50 on A31 (A*3101) was determined as 5.4 nM; at A*3301, 22 nM; on A*6801, 219 nM; against HLA-A11 (A*1101), 12 nM; on HLA-A3.2 (A*0301), 7.9 nM.
Turning to KSFLKGTPK [Peptide 88.0344], the 50% inhibitory concentration (IC50) came out at 22 nM against A31 (A*3101); 16100 nM against A*3301; 1910 nM at A*6801; 23 nM on HLA-A11 (A*1101); 16 nM against HLA-A3.2 (A*0301).
KSFLKGTPKK [Peptide 88.0149]: the 50% inhibitory concentration (IC50) on A31 (A*3101) is 572 nM; on A*3301, above 20000 nM; on A*6801 it was above 20000 nM; against HLA-A11 (A*1101), 89 nM; on HLA-A3.2 (A*0301) it was 48 nM.
Turning to KTASVGTPK [Peptide 1589.27], the IC50 against A31 (A*3101) is 44 nM; on A*3301, above 20000 nM; on A*6801 it was 8.5 nM; on HLA-A11 (A*1101), 13 nM; against HLA-A3.2 (A*0301), 11 nM.
Take KTDEGGDWK [Peptide 88.0380]: the half-maximal inhibitory concentration (IC50) is above 20000 nM against A31 (A*3101); 13100 nM against A*3301; 9890 nM at A*6801; 407 nM against HLA-A11 (A*1101); 3630 nM against HLA-A3.2 (A*0301).
The like results for KTLLQPYCLY [Peptide 88.0153] were, in that order, 4280 nM, 19600 nM, above 20000 nM, 405 nM and 180 nM.
As to KTTPVVHLK [Peptide 1589.37], the IC50 at A31 (A*3101) is 28 nM; on A*3301, above 20000 nM; against A*6801 it was 33 nM; at HLA-A11 (A*1101), 22 nM; against HLA-A3.2 (A*0301) it was 28 nM.
In the case of KTTVLFKFK [Peptide 88.0369], the IC50 worked out at 36 nM at A31 (A*3101); 1400 nM at A*3301; 874 nM against A*6801; 20 nM at HLA-A11 (A*1101); 31 nM at HLA-A3.2 (A*0301).

The values are drawn from patent US9340577B2, “HLA binding motifs and peptides and their uses” (priority 1992, dated 2016).
